From PubChem BioAssay AID330 (DTP/NCI, 2004)
Where “and” joins values, the source holds several entries; their conditions need not be identical. Equal entries are not always repeated. Inconclusive results and toxic doses are left out. Rule for the calls: active = survival T/C of 150% or more; inactive = T/C below 125% in these data.

Test system: P388 leukemia ip, CD2F1 mice, survival T/C
Assay: NCI In Vivo Anticancer Drug Screen. Data for tumor model P388 Leukemia (intraperitoneal) in CD2F1 (CDF1) mice
Settings: endpoint: median survival time, higher = longer survival
In short: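 Mice carrying the transplanted tumor received test compound or vehicle. Survival was recorded in each group, and the value is the treated-group measurement divided by that of the vehicle-treated control group.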

[1] = dose: 60.0 mg/kg/injection, schedule: Q01DX005 (ip), vehicle: saline with Tween-80
[2] = dose: 120.0 mg/kg/injection, schedule: Q01DX005 (ip), vehicle: saline with Tween-80
[3] = dose: 240.0 mg/kg/injection, schedule: Q01DX005 (ip), vehicle: saline with Tween-80
[4] = dose: 50.0 mg/kg/injection, schedule: Q01DX009 (ip), vehicle: saline
[5] = dose: 100.0 mg/kg/injection, schedule: Q01DX009 (ip), vehicle: saline
[6] = dose: 50.0 mg/kg/injection, schedule: Q01DX009 (ip), vehicle: Klucel (hydroxypropylcellulose) (HPC)
[7] = dose: 100.0 mg/kg/injection, schedule: Q01DX009 (ip), vehicle: Klucel (hydroxypropylcellulose) (HPC)
[8] = dose: 50.0 mg/kg/injection, schedule: Q01DX009 (ip), vehicle: saline with Tween-80
[9] = dose: 100.0 mg/kg/injection, schedule: Q01DX009 (ip), vehicle: saline with Tween-80
[10] = dose: 200.0 mg/kg/injection, schedule: Q01DX009 (ip), vehicle: saline with Tween-80
[11] = dose: 50.0 mg/kg/injection, schedule: Q01DX005 (ip), vehicle: saline + Tween-80 + alcohol
[12] = dose: 100.0 mg/kg/injection, schedule: Q01DX005 (ip), vehicle: saline + Tween-80 + alcohol
[13] = dose: 200.0 mg/kg/injection, schedule: Q01DX005 (ip), vehicle: saline + Tween-80 + alcohol
[14] = dose: 100.0 mg/kg/injection, schedule: Q04DX003 (ip), vehicle: saline
[15] = dose: 200.0 mg/kg/injection, schedule: Q04DX003 (ip), vehicle: saline
[16] = dose: 400.0 mg/kg/injection, schedule: Q04DX003 (ip), vehicle: saline
[17] = dose: 12.5 mg/kg/injection, schedule: Q01DX009 (ip), vehicle: saline
[18] = dose: 25.0 mg/kg/injection, schedule: Q01DX009 (ip), vehicle: saline
[19] = dose: 50.0 mg/kg/injection, schedule: Q01DX005 (ip), vehicle: saline with Tween-80
[20] = dose: 100.0 mg/kg/injection, schedule: Q01DX005 (ip), vehicle: saline with Tween-80
[21] = dose: 200.0 mg/kg/injection, schedule: Q01DX005 (ip), vehicle: saline with Tween-80

Measured: T/C

CN(C)c1ccc(/C=N/NC(=O)CNC(=O)c2ccccc2)cc1
inactive: [1] 94 % of control | [2] 92 % of control | [3] 96 % of control

C=C1CC2C3CC=C4CC(OC(C)=O)CCC4(C)C3CCC2(C)C1=O (stereo not given)
inactive: dose: 12.5 mg/kg/injection, schedule: Q01DX009 (ip), vehicle: saline with Tween-80 94 % of control | dose: 25.0 mg/kg/injection, schedule: Q01DX009 (ip), vehicle: saline with Tween-80 92 % of control | [4] 104 % of control | [5] 110 % of control

Cc1nnc(CN2CCOCC2)n1-c1ccc(Cl)cc1C(=O)c1ccccc1
inactive: dose: 25.0 mg/kg/injection, schedule: Q01DX009 (ip), vehicle: Klucel (hydroxypropylcellulose) (HPC) 86 % of control | [6] 96 % of control | [7] 105 % of control

CN1CC(=O)NC2C(=CN(Cc3ccccc3)c3ccccc32)C1=O (stereo not given)
inactive: [1] 100 % of control | [2] 90 % of control | [3] 90 % of control

C=C(C)C(=O)OCCN(C)C (tested in a mixture with another compound)
inactive: [8] 100 % of control | [9] 100 % of control | [10] 100 % of control

COCCOCn1cccc1Cc1ccc(C)cc1
inactive: dose: 100.0 mg/kg/injection, schedule: Q01DX001 (ip), vehicle: distilled water + alcohol 100 % of control | dose: 200.0 mg/kg/injection, schedule: Q01DX001 (ip), vehicle: distilled water + alcohol 96 % of control | dose: 400.0 mg/kg/injection, schedule: Q01DX001 (ip), vehicle: distilled water + alcohol 99 % of control

O=S1C2CCC(Br)C1CCC2Br (stereo not given)
inactive: dose: 0.39 mg/kg/injection, schedule: Q04DX002 (ip), vehicle: saline + alcohol 105 % of control | dose: 0.78 mg/kg/injection, schedule: Q04DX002 (ip), vehicle: saline + alcohol 100 % of control | dose: 1.56 mg/kg/injection, schedule: Q04DX002 (ip), vehicle: saline + alcohol 101 % of control

Oc1cc2c(ccc3ccccc32)c2c1CCC2
inactive: dose: 6.25 mg/kg/injection, schedule: Q01DX001 (ip), vehicle: Klucel (hydroxypropylcellulose) (HPC) 106 % of control | dose: 12.5 mg/kg/injection, schedule: Q01DX001 (ip), vehicle: Klucel (hydroxypropylcellulose) (HPC) 104 % of control | dose: 25.0 mg/kg/injection, schedule: Q01DX001 (ip), vehicle: Klucel (hydroxypropylcellulose) (HPC) 119 % of control

Cc1ncc(CO)c(C2NOCc3nscc32)c1O (stereo not given)
inactive: dose: 3.5 mg/kg/injection, schedule: Q04DX003 (ip), vehicle: saline 100 % of control | dose: 7.0 mg/kg/injection, schedule: Q04DX003 (ip), vehicle: saline 95 % of control | dose: 14.0 mg/kg/injection, schedule: Q04DX003 (ip), vehicle: saline 100 % of control

O=C(CNSc1ccc([N+](=O)[O-])cc1[N+](=O)[O-])OCc1ccccc1
inactive: [11] 100 % of control | [12] 106 % of control | [13] 97 % of control

[CH3][Ge]([c]1ccccc1)[c]1cccc2ccccc12.[CH3][Sn]([CH3])[c]1ccccc1
inactive: [14] 100 % of control | [15] 100 % of control | [16] 101 % of control

CC1=CCC2C3(C)C=CC(=O)C(C)(C)C3CC3OC(=O)C=C1C32C (stereo not given)
inactive: dose: 0.75 mg/kg/injection, schedule: Q01DX009 (ip), vehicle: Klucel (hydroxypropylcellulose) (HPC) 102 % of control | dose: 1.5 mg/kg/injection, schedule: Q01DX009 (ip), vehicle: Klucel (hydroxypropylcellulose) (HPC) 98 % of control and 102 % of control | dose: 3.0 mg/kg/injection, schedule: Q01DX009 (ip), vehicle: Klucel (hydroxypropylcellulose) (HPC) 101 % of control | dose: 6.0 mg/kg/injection, schedule: Q01DX009 (ip), vehicle: Klucel (hydroxypropylcellulose) (HPC) 97 % of control | dose: 12.0 mg/kg/injection, schedule: Q01DX009 (ip), vehicle: Klucel (hydroxypropylcellulose) (HPC) 100 % of control and 97 % of control | dose: 24.0 mg/kg/injection, schedule: Q01DX009 (ip), vehicle: Klucel (hydroxypropylcellulose) (HPC) 100 % of control

CN(C)P(=O)(N(C)C)N1CCCCC1
inactive: [8] 97 % of control | [9] 114 % of control | [10] 100 % of control

CCOc1ccc(N2CC(=O)N3CCCN3C(=O)C2)cc1
inactive: dose: 6.25 mg/kg/injection, schedule: Q01DX005 (ip), vehicle: saline with Tween-80 96 % of control | dose: 12.5 mg/kg/injection, schedule: Q01DX005 (ip), vehicle: saline with Tween-80 102 % of control | dose: 25.0 mg/kg/injection, schedule: Q01DX005 (ip), vehicle: saline with Tween-80 100 % of control

Cc1nc(-c2ccccc2-n2cccc2)no1
inactive: [8] 104 % of control | [9] 102 % of control

N#Cc1ccc(NC(=O)CCCC(=O)Nc2ccc(C#N)c(C#N)c2)cc1C#N
inactive: [6] 97 % of control | [7] 94 % of control | dose: 200.0 mg/kg/injection, schedule: Q01DX009 (ip), vehicle: Klucel (hydroxypropylcellulose) (HPC) 96 % of control

COc1ccc(C(c2cc3c(cc2O)OCO3)N2CCCCC2)cc1OC (stereo not given)
inactive: [1] 107 % of control | [2] 110 % of control | [3] 120 % of control

CCOC(=O)c1c(NC(=S)NC)sc(C)c1C
inactive: [8] 106 % of control | [9] 89 % of control | [10] 106 % of control

Nc1ccc2c(c1)Cc1cc(NC=O)ccc1-2
inactive: [17] 94 % of control | [18] 91 % of control | [4] 91 % of control | [5] 91 % of control

Nc1ncnc2c1cnn2CCCl
inactive: dose: 6.25 mg/kg/injection, schedule: Q01DX009 (ip), vehicle: saline 95 % of control | [17] 100 % of control | [18] 100 % of control

O=C1Cc2ccccc2N1
inactive: [4] 116 % of control | [5] 107 % of control | dose: 200.0 mg/kg/injection, schedule: Q01DX009 (ip), vehicle: saline 105 % of control

CN(C)C1CC2CCCCC2CC1OC(=O)c1ccc([N+](=O)[O-])cc1 (stereo not given)
inactive: dose: 100.0 mg/kg/injection, schedule: Q04DX003 (ip), vehicle: saline with Tween-80 101 % of control | dose: 200.0 mg/kg/injection, schedule: Q04DX003 (ip), vehicle: saline with Tween-80 110 % of control | dose: 400.0 mg/kg/injection, schedule: Q04DX003 (ip), vehicle: saline with Tween-80 101 % of control

O=C(c1ccccc1)N1CC2CCC1CN2C(=O)c1ccccc1
inactive: dose: 12.5 mg/kg/injection, schedule: Q01DX009 (ip), vehicle: other 105 % of control | dose: 25.0 mg/kg/injection, schedule: Q01DX009 (ip), vehicle: other 105 % of control | dose: 50.0 mg/kg/injection, schedule: Q01DX009 (ip), vehicle: other 100 % of control | dose: 100.0 mg/kg/injection, schedule: Q01DX009 (ip), vehicle: other 100 % of control | dose: 200.0 mg/kg/injection, schedule: Q01DX009 (ip), vehicle: other 105 % of control

Cc1ccc(S(=O)CC#CC#CCS(=O)c2ccc(C)cc2)cc1 (stereo not given)
inactive: dose: 50.0 mg/kg/injection, schedule: Q01DX001 (ip), vehicle: saline with Tween-80 93 % of control | dose: 100.0 mg/kg/injection, schedule: Q01DX001 (ip), vehicle: saline with Tween-80 97 % of control | dose: 200.0 mg/kg/injection, schedule: Q01DX001 (ip), vehicle: saline with Tween-80 101 % of control

NN1C(=O)CCC1=O
inactive: [8] 94 % of control | [9] 97 % of control | [10] 92 % of control

CN1C(c2ccccc2)C2CCCC(C2O)C1c1ccccc1 (stereo not given)
inactive: [14] 97 % of control | [15] 100 % of control | [16] 98 % of control

COc1cc2c(cc1OC)C(C)P(C)(=O)CC2=O (stereo not given)
inactive: [19] 96 % of control and 99 % of control | [20] 102 % of control and 101 % of control | [21] 102 % of control and 99 % of control

Cc1cc(=O)c2c3c(ccc2[nH]1)Oc1ccccc1O3
inactive: [19] 101 % of control | [20] 101 % of control | [21] 100 % of control

CCB1OCC(C2OC(=O)C3OB(CC)OC32)O1 (stereo not given)
inactive: [11] 101 % of control | [12] 101 % of control | [13] 95 % of control

Cc1ccc(C[n+]2cc3ccccc3cc2/C=N\O)cc1
inactive: [19] 98 % of control | [20] 109 % of control
